The source of these data is ChEMBL document CHEMBL3046762, “Synthesis and biological evaluation of 2-amino-5-sulfanyl-1,3,4-thiadiazole derivatives as antidepressant, anxiolytics and anticonvulsant agents” (2011).

The test system of assay [1] is Rattus norvegicus. The experiment in a line: Anticonvulsant activity in Rattus norvegicus Wistar albino (rat) assessed as inhibition of pentyleneterazole-induced clonic convulsion measured as onset of convulsion at 30 mg/kg, ip pretreated 30 min prior to pentylenetetrazole challenge (reference value: 48.25 +/- 0.01 sec). The format is functional. As to conditions: route intraperitoneal.

The test system of assay [2] is Rattus norvegicus. Description: Anticonvulsant activity in Rattus norvegicus Wistar albino (rat) assessed as reduction in pentyleneterazole-induced mortality at 30 mg/kg, ip pretreated 30 min prior to pentylenetetrazole challenge. The format is functional, organism-based. Further details: dose 30 mg/kg.
For assay [3], the system named is Mus musculus. Description: Anxiolytic activity in Mus musculus Swiss (mouse) assessed as time spent in light chamber at 30 mg/kg, ip measured after 30 min by light and dark model test (reference value: 130.2 +/- 0.01 sec). The format is functional. The conditions noted are these: route intraperitoneal.
For assay [4], the system named is Rattus norvegicus. The experiment in a line: Anticonvulsant activity in Rattus norvegicus Wistar albino (rat) assessed as duration of tonic hind limb extensor at 30 mg/kg, ip measured after 30 min by maximal electroshock-induced convulsion test (reference value: 15.71 +/- 0.01 sec). The format is functional, Hindlimb. The conditions noted are these: route intraperitoneal.

Assay [5] deals with Rattus norvegicus. The experiment in a line: Anticonvulsant activity in Rattus norvegicus Wistar albino (rat) assessed as protection against maximal electroshock-induced convulsion at 30 mg/kg, ip measured after 30 min. As to conditions: route intraperitoneal. The format is functional.
For assay [6], the system named is Mus musculus. The experiment in a line: Anxiolytic activity in Mus musculus balb/cj (mouse) assessed as preference to open arm at 30 mg/kg, ip measured after 30 min by elevated pluze maze test. It counts as functional. As to conditions: route intraperitoneal.
The test system of assay [7] is Mus musculus. The experiment in a line: Anxiolytic activity in Mus musculus balb/cj (mouse) assessed as time spent in open arm at 30 mg/kg, ip measured after 30 min by elevated pluze maze test (reference value: 12.25 +/- 0.02 sec). As to conditions: route intraperitoneal. It counts as functional.
Assay [8] has as its system Mus musculus. Description: Antidepressant activity in Mus musculus (mouse) assessed as increase in mobile phase at 30 mg/kg, ip measured after 30 min by tail suspension test. The conditions noted are these: route intraperitoneal. It counts as functional.
In assay [9] the test system is Mus musculus. Description: Antidepressant activity in Mus musculus (mouse) assessed as decrease in immobility at 30 mg/kg, ip measured after 30 min by despair swim test. It counts as functional. As to conditions: 0.5 h, route intraperitoneal.
Assay [10] deals with Mus musculus. The experiment in a line: Anxiolytic activity in Mus musculus balb/cj (mouse) assessed as time spent in open arm at 2 mg/kg, ip measured after 30 min by elevated pluze maze test (reference value: 12.25 +/- 0.02 sec). The format is functional. The conditions noted are these: route intraperitoneal.
The subject of assay [11] is Mus musculus. Description: Antidepressant activity in Mus musculus (mouse) assessed as decrease in immobility at 15 mg/kg, ip measured after 30 min by despair swim test. The conditions noted are these: 0.5 h, read-out: INH.
In assay [12] the test system is Rattus norvegicus. Description: Anticonvulsant activity in Rattus norvegicus Wistar albino (rat) assessed as reduction in pentyleneterazole-induced mortality at 4 mg/kg, ip pretreated 30 min prior to pentylenetetrazole challenge. The format is functional, organism-based. Further details: dose 4 mg/kg.
Assay [13] has as its system Rattus norvegicus. Description: Anticonvulsant activity in Rattus norvegicus Wistar albino (rat) assessed as duration of tonic hind limb extensor at 25 mg/kg, ip measured after 30 min by maximal electroshock-induced convulsion test. It counts as functional, organism-based. Further details: dose 25 mg/kg. The conditions noted are these: Hindlimb.
In assay [14] the test system is Rattus norvegicus. Description: Anticonvulsant activity in Rattus norvegicus Wistar albino (rat) assessed as protection against maximal electroshock-induced convulsion at 25 mg/kg, ip measured after 30 min. As to conditions: route intraperitoneal. The format is functional.

Activity calls are given as the source filed them. No cut-off for these calls is given here.

As to `NS(=O)(=O)c1ccc(Sc2nnc(Nc3ccc(S(=O)(=O)Cl)cc3)s2)cc1`, the Time was determined as 175.2 s in assay [1], 180.25 s in assay [3], 4.69 s in [4] and 45.93 s in assay [7]. Moreover, the outcome in assay [2] was Active. For the same compound, the figures for the Activity in assay [5], in [6] and in assay [8] were 50%, 17.2% and 40.58%, respectively. The inhibition in vivo at 30 mg/kg in [9] was found to be 50.4%.

For the compound `NS(=O)(=O)c1ccc(Sc2nnc(Nc3ccc(F)cc3)s2)cc1`, the Time in assay [1] was 171.25 s; in assay [3] it was 185.9 s; in assay [4], 4.5 s; in assay [7], 46.31 s. The result in assay [2] was Active. In addition, the Activity is 66.66% in [5], 18.01% in assay [6] and 40.31% in [8]. For the same compound, the inhibition in vivo at 30 mg/kg in assay [9] is 50.5%.

For the compound `O=S(=O)(Cl)c1ccc(Sc2nnc(Nc3ccc(Br)cc3)s2)cc1`, the Time in assay [1] came to 70.25 s; in assay [3], 159.3 s; in assay [4], 7.63 s; in assay [7] it was 25.2 s. Also, the outcome in assay [2] was Active. In addition, the figures for the Activity in [5], in assay [6] and in assay [8] were 0%, 9.25% and 20.57%, respectively. In assay [9], the inhibition in vivo at 30 mg/kg came out at 30.7%.

For the compound `O=S(=O)(Cl)c1ccc(Nc2nnc(Sc3ccc(S(=O)(=O)Cl)cc3)s2)cc1`, the Time was 125.2 s in assay [1], 172.5 s in [3], 8.5 s in assay [4] and 27.63 s in assay [7]. In assay [2], the result was Active. The Activity in assay [5] was found to be 0%; in [6], 7.9%; in assay [8], 10.09%. Also, in [9], the inhibition in vivo at 30 mg/kg turned out to be 25.9%.

For the compound `NS(=O)(=O)c1ccc(Sc2nnc(Nc3ccc(Cl)cc3)s2)cc1`, the Time in assay [1] was 151.3 s; in [3], 178.2 s; in [4], 5.17 s; in assay [7] it was 45.51 s. For the same compound, the outcome in [2] was Active. Further, the Activity in [5] came to 50%; in assay [6], 16.35%; in assay [8], 33.33%. Also, the inhibition in vivo at 30 mg/kg in assay [9] amounted to 29.2%.

Turning to `Cc1ccc(Nc2nnc(Sc3ccc(S(N)(=O)=O)cc3)s2)cc1`, the Time in [1] is reported as 170.26 s; in assay [3] it was 190.25 s; in assay [4], 4.52 s; in assay [7], 45.69 s. For the same compound, the outcome in assay [2] was Active. Further, the values for the Activity in assay [5], in [6] and in [8] were 50%, 18.25% and 42.21%, respectively. Besides, in assay [9], the inhibition in vivo at 30 mg/kg was 51.5%.

For `O=S(=O)(Cl)c1ccc(Sc2nnc(Nc3ccc(C(Cl)(Cl)Cl)cc3)s2)cc1`, the Time was determined as 99.9 s in assay [1], 170.5 s in assay [3], 7.01 s in assay [4] and 26.2 s in [7]. Also, in assay [2], the outcome was Active. The Activity worked out at 16.66% in assay [5], 8.75% in assay [6] and 19.16% in [8]. Further, in [9], the inhibition in vivo at 30 mg/kg turned out to be 30.2%.

For the compound `Cc1ccc(Nc2nnc(Sc3ccc(S(=O)(=O)Cl)cc3)s2)cc1`, the Time is 101.26 s in [1], 169.25 s in assay [3], 8.01 s in assay [4] and 22.2 s in assay [7]. Moreover, in assay [2], the result was Active. Also, the Activity in assay [5] is listed as 16.66%; in assay [6] it was 7.58%; in [8], 15.19%. Further, in [9], the inhibition in vivo at 30 mg/kg came to 29.2%.

With `NS(=O)(=O)c1ccc(Sc2nnc(Nc3ccc(Br)cc3)s2)cc1`, the Time is listed as 71.9 s in assay [1], 162.3 s in assay [3], 8.01 s in assay [4] and 29.26 s in assay [7]. In assay [2], the result was Active. The Activity in assay [5] is 33.33%; in [6], 8.01%; in assay [8], 15.68%. For the same compound, the inhibition in vivo at 30 mg/kg in [9] came to 27.2%.

On to `CNCCC(Oc1ccc(C(F)(F)F)cc1)c1ccccc1.Cl` (stereo not drawn) [FLUOXETINE HYDROCHLORIDE], for which the Time in assay [10] stood at 60.01 s. The inhibition in vivo at 15 mg/kg in assay [11] stood at 58.6%.

On to `O=S(=O)(Cl)c1ccc(Sc2nnc(Nc3ccc(C(F)(F)F)cc3)s2)cc1`, for which the Time in [1] was 180.25 s; in assay [3], 192 s; in assay [4], 4.42 s; in [7] it was 47.92 s. Further, the outcome in assay [2] was Active. Further, the figures for the Activity in assay [5], in assay [6] and in assay [8] were 66.66%, 18.92% and 45.97%, respectively. Moreover, the inhibition in vivo at 30 mg/kg in assay [9] came out at 53.5%.

Take `CN1C(=O)CN=C(c2ccccc2)c2cc(Cl)ccc21`: the result in assay [12] was Active.

Regarding `NS(=O)(=O)c1ccc(Nc2nnc(Sc3ccc(S(N)(=O)=O)cc3)s2)cc1`, the Time is 133.2 s in [3], 8.25 s in [4] and 26.64 s in [7]. In addition, the Activity in [5] turned out to be 0%; in [6] it was 6.65%; in assay [8] it was 10.06%. For the same compound, the inhibition in vivo at 30 mg/kg in assay [9] was 25.2%.

On to `O=S(=O)(Cl)c1ccc(Sc2nnc(Nc3ccc(F)cc3)s2)cc1`, for which the Time in [1] is recorded as 101.26 s; in assay [3] it was 166.3 s; in assay [4], 8.25 s; in [7], 25.26 s. Also, the outcome in assay [2] was Active. For the same compound, the values for the Activity in assay [5], in assay [6] and in assay [8] were 0%, 10.54% and 21.51%, respectively. Further, in assay [9], the inhibition in vivo at 30 mg/kg is 22.8%.

As for `NS(=O)(=O)c1ccc(Sc2nnc(Nc3ccc(C(F)(F)F)cc3)s2)cc1`, the Time in assay [1] was found to be 126.2 s; in assay [3], 151.26 s; in assay [4], 7.37 s; in assay [7] it was 23.72 s. In [2], the result was Active. Besides, the Activity in [5] came to 33.33%; in [6] it was 8.92%; in [8] it was 31.29%. Further, the inhibition in vivo at 30 mg/kg in [9] is 27.9%.

For `NS(=O)(=O)c1ccc(Sc2nnc(Nc3ccc(C(Cl)(Cl)Cl)cc3)s2)cc1`, the Time in assay [1] stood at 106.7 s; in assay [3], 162 s; in assay [4] it was 6.96 s; in [7] it was 24.2 s. Further, the outcome in assay [2] was Active. The Activity in assay [5] was 16.66%; in assay [6], 7.85%; in assay [8], 16.39%. Moreover, the inhibition in vivo at 30 mg/kg in assay [9] was 25%.

Consider `O=S(=O)(Cl)c1ccc(Sc2nnc(Nc3ccc(Cl)cc3)s2)cc1`, for which the Time in [1] turned out to be 63.6 s; in [3], 151.5 s; in [4], 7.55 s; in [7] it was 30.01 s. In addition, in assay [2], the result was Active. Also, the results for the Activity in [5], in assay [6] and in assay [8] were 16.66%, 9.75% and 15.68%, respectively. Moreover, the inhibition in vivo at 30 mg/kg in [9] is 23.9%.

Take `O=C1NC(=O)C(c2ccccc2)(c2ccccc2)N1` [PHENYTOIN]: in [13], the result was Active. Moreover, the Activity in [14] is on record as 100%.
